Molecular target: T1, HDAC8 Cys102Ser/Cys153Ser/Cys287Ser (Homo sapiens, UniProt Q9BY41, C102S/C153S/C287S)
T1 construct: made in house
T1 sequence (Q9BY41 1-377 C102S/C153S/C287S): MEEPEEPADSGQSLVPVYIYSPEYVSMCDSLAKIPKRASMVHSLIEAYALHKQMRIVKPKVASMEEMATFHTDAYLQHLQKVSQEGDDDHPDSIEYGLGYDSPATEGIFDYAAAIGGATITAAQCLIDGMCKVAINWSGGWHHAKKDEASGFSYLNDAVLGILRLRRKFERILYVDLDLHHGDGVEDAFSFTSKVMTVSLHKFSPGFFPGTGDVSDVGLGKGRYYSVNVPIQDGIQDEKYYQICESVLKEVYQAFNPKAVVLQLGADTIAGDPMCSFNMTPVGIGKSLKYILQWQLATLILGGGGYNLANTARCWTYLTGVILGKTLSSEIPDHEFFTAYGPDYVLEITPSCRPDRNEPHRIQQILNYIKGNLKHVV
Test: HDAC8 mutant biochemical assay
Settings: read-out: IC50 [μM] @ 100 nM HDAC8: G Cys102Ser/Cys153Ser/Cys287Ser, 1 h preincubation
Description: HDAC8 mutant variants were generated, produced, and further purified as described previously.[32] Cysteines 28 and 314 were exchanged with serine using the following primer pairs: HD8_C28S_for, […]; HD8_C28S_rev, […]; HD8_C314S_for, […]; HD8_C314S_rev, […].
The enzyme activity assay was performed in assay buffer [25 mM Tris-HCl (pH 8.0), 50 mM NaCl, and 0.001% (v/v) Pluronic F-68] in black half-area 96-well microplates (Greiner Bio-One). For the initial screening, 10 nM HDAC8 was preincubated with the indicated compounds at 250 μM for 2 h at 30 °C. […] The reaction was initiated by the addition of 20 μM Boc-Lys(TFA)-AMC (Bachem). After substrate conversion at 30 °C for 15 min for HDAC8 and 1 h for HDAC8 mutants and HDAC4, the reaction was stopped by adding 1.67 μM suberoylanilide trifluoromethylketone (SATFMK). The deacetylated substrate was cleaved with 0.42 mg/mL trypsin to release fluorescent 7-amino-4-methylcoumarin (AMC), which was detected with a microplate reader (PHERAstar FS […]) with fluorescence excitation at 360 nm and emission at 460 nm. IC50 values were calculated by generating dose–response curves in GraphPad Prism 6 and fitting those to a four-parameter logistic model.

Row | IC50 | Structure (SMILES)
1 | > 130 µM | C[n+]1cccnc1Br [D2+]
2 | 34 ± 2 µM | C#Cc1cc[n+](C)cc1 [C6+]
3 | > 130 µM | C#Cc1nccc[n+]1C [D6+]
4 | 73 ± 6 µM | C#Cc1c[n+](C)ccn1 [G6+]
5 | > 130 µM | C[n+]1ccc(I)cc1 [C3+]
6 | 51 ± 7 µM | C[n+]1cccnc1I [D3+]
7 | > 130 µM | C[n+]1ccccc1I [A3+]
8 | > 130 µM | C[n+]1cccnc1Cl [D1+]
9 | > 130 µM | C[n+]1cncc(I)c1 [F3+]
10 | 95 ± 8 µM | C[n+]1cncc(Br)c1 [F2+]

Reference: article PMC10788917 (Journal of Medicinal Chemistry, 2023)
